Key:
[1] = system: adalimumab producing cell line 2; experiment: Extracellular MGO measurement in cell culture supernatant, cell line 2; format: cell-based; conditions: Example 4; for MGO concentration level: 0.15 g/l 2DDG
Experimental: About 20 ml of cell free supernatant were collected in some cases for measurement of extracellular MGO in the supernatant. For this, a 3,000 RPM 30 min centrifugation was performed to remove the cells.
Remove protein: After quick thawing covered with aluminum, cell culture samples (10 mL) were filtrated by a 3 kDa or 10 kDa membrane filter (Millipore, UFC900369) until the solution left inside the filter was around 1 mL, the flow through that was used for MGO analysis.
Derivative MGO: 750 uL of flow through, 75 uL of 1 M NaH2PO4 buffer (pH 8), 50 mM 1,2 diaminobenzene (Aldrich P/N: P23938), and 600 uL of MilliQ water were mixed well and incubated at 60° C. for 3 hours. After cooling down and centrifuging at 10000 rpm for 3 minutes, the sample solution was ready to be injected.
External Standards to Quantitate MGO: external standards were used to quantitate MGO in cell culture. Based on the following table, the standard solutions were prepared. The standard solutions were incubated at 60° C. for 3 hours. After cooling down, the standard solutions were analyzed to get an external standard curve. The concentration of MGO in culture was calculated based on the external standard curve. (MGO: CMP Biomedicals, P/N: 155558; GO: Fisher Scientifics, P/N: S25698). 10 mM and 1 mM MGO were diluted from the MGO and 1000 uM and 10 uM GO were diluted from the GO. The diluent was water.
HPLC Method: A reverse phase HPLC method was used for MGO analysis. The parameters are listed in the method information table and gradient table below.
The measured concentration based on external quantitation multiplied by two is the final MGO concentration.
The objective of this experiment was to further evaluate the control of MGO synthesis/MGO protein modification through reduced glucose consumption in a different cell line, Cell line 2. There were two parts to this experiment. In one part, different levels of 2DDG were supplemented (0.05 g/l, 0.15 g/l) similar to the experimental design in Example 2. Prior to this experiment, a study was performed in shake flask culture to evaluate the dose effect of 2DDG on this cell line (data not shown). In the other part, different glucose profiles were maintained in the culture through the feedback control of glucose feed amounts. […] As described in Example 3, extracellular MGO quantification was performed for day 7, 8 and 9 for the samples below and percentage of acidic species were quantified using WCX-10 analysis post protein A of cell culture harvests.
The cells were grown to maximum viable cell densities (VCD) in the range of 10-12×10^6 cells/ml for the different conditions tested. […] Samples were then subsequently analyzed using Lys-C peptide mapping for quantification of MGO modification post protein A purification. […]

[2] = system: adalimumab producing cell line 1; experiment: Glucose consumption of the culture, cell line 1; format: cell-based
Experimental: For the bioreactor (3 L Applikon) experiments (Examples 1, 2 and 3), 3 L, bioreactors (1.5 L working volume) were initiated at 35° C. (cell line 1) and 36° C. (cell line 2), 30% DO, 200 rpm, pH of 7.1. In some of the conditions, pH was ramped down to 6.8 in three days and kept at pH 6.8 thereafter. The inclusion of pH ramp for a particular condition is indicated by the final pH in the experimental design. If the final pH is 7.1, then it indicates no pH ramp was performed, whereas if the final pH is 6.8, a pH ramp was performed on day 3 from pH 7.1 to pH 6.8. In some of the conditions, a temperature shift was performed. When temperature shift was performed, the temperature was lowered to 33° C. Again, the conditions where such a temperature shift was performed can be identified from the final temperature in the experimental design. Cultures were run in extended batch mode with the addition of a desired amount of 40% glucose stock solution was fed based on glucose measurements.
To assess if this reduction in MGO modification in the test conditions also corresponded to lower glucose consumption, the specific glucose consumption rate was calculated across the two phases of culture: average over day 0-day 5 and average over day 5-10 (period post temperature shift) (FIG. 4b). The specific glucose consumption rate in the conditions with 2DDG supplementation was lower in both phases. […] In the period post the temperature shift, up to 50% reduction in specific glucose consumption rate relative to that in the control was observed. Thus, a clear correlation has been observed between reduced glucose consumption and the extent of MGO modification of the peptides.
To further assess the applicability of this strategy, the cumulative glucose consumption levels were also evaluated for these conditions in this study (FIG. 6b). This was calculated by using daily glucose concentration measurements via the offline analyzer and by accounting for glucose feeds when added. […]

SMILES: O=CC[C@@H](O)[C@H](O)[C@H](O)CO [Test 2DDG, 2-Deoxy-D-Glucose]
- MGO concentration profile ([1]; 0.05 g/l 2DDG, versus control): No significant difference
- MGO concentration level ([1]; day 7, control 28 μM): 14 µM
- MGO concentration level ([1]; day 8, control 64 μM): 16 µM
- MGO concentration level ([1]; day not printed (third value, after day 7 and day 8), control 157 μM (day 9)): 20 µM
- specific glucose consumption rate ([2]; Example 2, 2DDG 0.25 g/l, day 0-day 5 and day 5-10, versus control): lower
- glucose consumption ([2]; Example 3, 2DDG supplementation 0.25 g/l): significant reduction

Reference: patent publication US20160115225A1, “Methods of Reducing Methylglyoxal (MGO) Modification of Recombinant Proteins in Cell Culture” (AbbVie Inc., priority 2014, published 2016)
